Results from patent US11078170B2 (Assembly Biosciences, Inc., priority 2017, dated 2021).

These compounds were tested on HBV viral production from HepAD38 cells (assay: Activity of test compounds on viral production from HepAD38 cells (viral load by qPCR of HBV core sequence in supernatant)). Details: Hepatitis B virus, 120 h, 5 days incubation, HBV DNA in supernatant by qPCR, top concentration 10 μM, read-out: Viral Load EC50 Activity range.
Assay type: cell-based
Summary of the method: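 EC50 and CC50 come from four-parameter fits of supernatant viral load and CellTiter-Glo viability, respectively. Viral load was measured by core-region TaqMan qPCR against HBV DNA standards and compared with DMSO controls. Tet-free HepAD38 cells (50,000/well, 2% FBS) were exposed to compound, highest 10 μM, for 5 days at 37° C.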

Structure (SMILES)	EC50 [µM]
[2H]C1[C@]([2H])(C(=O)Nc2ccc(F)c(Cl)c2)N(C)S(=O)(=O)N[C@]1([2H])c1ncc(-c2cn(C([2H])([2H])[2H])cn2)s1 (stereo in doubt) [HBV-CSU-341-ISO-II, Cis-N-(3-Chloro-4-fluorophenyl)-2-methyl-5-(5-(1-(methyl-d3)-1H-imidazol-4-yl)thiazol-2-yl)-1,2,6-thiadiazinane-3,4,5-d3-3-carboxamide 1,1-dioxide]	1 to 5
CN1C(C(=O)Nc2ccc(F)c(Cl)c2)CC(c2ccc(F)cn2)NS1(=O)=O (stereo not drawn) [HBV-CSU-032, Cis-N-(3-Chloro-4-fluorophenyl)-5-(5-fluoropyridin-2-yl)-2-methyl-1,2,6-thiadiazinane-3-carboxamide 1,1-dioxide]	< 1
CN1C(C(=O)Nc2ccc(F)c(Cl)c2)CC(c2ccc(-c3ccc(F)cn3)s2)NS1(=O)=O (racemic) [HBV-CSU-242, Cis-N-(3-chloro-4-fluorophenyl)-5-(5-(5-fluoropyridin-2-yl)thiophen-2-yl)-2-methyl-1,2,6-thiadiazinane-3-carboxamide 1,1-dioxide]	< 1
[2H]C([2H])([2H])N1[C@@H](C(=O)Nc2ccc(F)c(Cl)c2)C[C@@H](c2ncc(-c3cn(C([2H])([2H])[2H])cn3)s2)NS1(=O)=O (relative stereo) [HBV-CSU-337-ISO-II, Cis-N-(3-Chloro-4-fluorophenyl)-2-(methyl-d3)-5-(5-(1-(methyl-d3)-1H-imidazol-4-yl)thiazol-2-yl)-1,2,6-thiadiazinane-3-carboxamide 1,1-dioxide]	1 to 5
CN1C(C(=O)Nc2ccc(F)c(Cl)c2)CC(c2ccc(-c3cnn(C(F)(F)F)c3)s2)NS1(=O)=O (centres unmarked) [HBV-CSU-321]	< 1
CN1[C@H](C(=O)Nc2ccc(F)c(Cl)c2)C[C@@H](c2ncc(-c3cn(C)cn3)s2)NS1(=O)=O [HBV-CSU-276-Trans-ISO-II, (3S,5S)-N-(3-chloro-4-fluorophenyl)-2-methyl-5-(5-(1-methyl-1H-imidazol-4-yl)thiazol-2-yl)-1,2,6-thiadiazinane-3-carboxamide 1,1-dioxide]	1 to 5
CN1[C@@H](C(=O)Nc2ccc(F)c(Cl)c2)C[C@@H](c2cc(-c3ccccn3)cs2)NS1(=O)=O [HBV-CSU-168-ISO-I, Cis-N-(3-chloro-4-fluorophenyl)-2-methyl-5-(4-(pyridin-2-yl)thiophen-2-yl)-1,2,6-thiadiazinane-3-carboxamide 1,1-dioxide]	1 to 5
[2H]C1[C@]([2H])(C(=O)Nc2ccc(F)c(Cl)c2)N(C)S(=O)(=O)N[C@]1([2H])c1ccc(-c2cn(C([2H])([2H])[2H])cn2)s1 (stereo in doubt) [HBV-CSU-376-ISO-II, Cis-N-(3-Chloro-4-fluorophenyl)-2-methyl-5-(5-(1-(methyl-d3)-1H-imidazol-4-yl)thiophen-2-yl)-1,2,6-thiadiazinane-3,4,5-d3-3-carboxamide 1,1-dioxide]	1 to 5
NC(=O)CN1C(C(=O)Nc2ccc(F)c(Cl)c2)CC(c2nccs2)NS1(=O)=O (centres unmarked)	1 to 5
CN1[C@@H](C(=O)Nc2ccc(F)c(Cl)c2)C[C@@H](c2cc(Cc3ccccc3)cs2)NS1(=O)=O [HBV-CSU-149-ISO-II, Cis-(4-benzylthiophen-2-yl)-N-(3-chloro-4-fluorophenyl)-2-methyl-1,2,6-thiadiazinane-3-carboxamide 1,1-dioxide]	1 to 5
COC(=O)c1ccc(C2CC(C(=O)Nc3ccc(F)c(Cl)c3)N(C)S(=O)(=O)N2)cc1 (stereo not drawn) [HBV-CSU-256, Cis-methyl 4-(5-((3-chloro-4-fluorophenyl)carbamoyl)-6-methyl-1,1-dioxido-1,2,6-thiadiazinan-3-yl)benzoate]	1 to 5
CN1C(C(=O)Nc2ccc(F)c(Cl)c2)CC(c2ncc(-c3cccnc3)s2)NS1(=O)=O (racemic) [HBV-CSU-175, Cis-N-(3-Chloro-4-fluorophenyl)-2-methyl-5-(5-(pyridin-3-yl)thiazol-2-yl)-1,2,6-thiadiazinane-3-carboxamide 1,1-dioxide]	< 1
COCCN1[C@H](C(=O)Nc2ccc(F)c(Cl)c2)C[C@H](c2cccs2)NS1(=O)=O [HBV-CSU-025-ISO-II, Cis-N-(3-chloro-4-fluorophenyl)-2-(2-methoxyethyl)-5-(thiophen-2-yl)-1,2,6-thiadiazinane-3-carboxamide 1,1-dioxide]	< 1
COc1ccc(-c2cnc([C@H]3C[C@@H](C(=O)Nc4ccc(F)c(Cl)c4)N(C)S(=O)(=O)N3)s2)cc1 [HBV-CSU-250-ISO-I, Cis-N-(3-Chloro-4-fluorophenyl)-5-(5-(4-methoxyphenyl)thiazol-2-yl)-2-methyl-1,2,6-thiadiazinane-3-carboxamide 1,1-dioxide]	< 1
CN1C(C(=O)Nc2ccc(F)c(Cl)c2)CC(c2cccnc2)NS1(=O)=O (stereo not drawn) [HBV-CSU-033, Cis-N-(3-Chloro-4-fluorophenyl)-2-methyl-5-(pyridin-3-yl)-1,2,6-thiadiazinane-3-carboxamide 1,1-dioxide]	< 1
CN1C(C(=O)Nc2ccc(F)c(Cl)c2)CC(c2ncc(-c3cncn3C)s2)NS1(=O)=O (racemic) [HBV-CSU-277, Cis-N-(3-Chloro-4-fluorophenyl)-2-methyl-5-(5-(1-methyl-1H-imidazol-5-yl)thiazol-2-yl)-1,2,6-thiadiazinane-3-carboxamide 1,1-dioxide]	< 1
CN1[C@H](C(=O)Nc2ccc(F)c(Cl)c2)C[C@H](c2ccccc2)NS1(=O)=O [HBV-CSU-113-ISO-I, Cis-N-(3-chloro-4-fluorophenyl)-2-methyl-5-phenyl-1,2,6-thiadiazinane-3-carboxamide 1,1-dioxide]	< 1
Cc1ccc([C@@H]2C[C@H](C(=O)Nc3ccc(F)c(Cl)c3)N(C)S(=O)(=O)N2)s1 [HBV-CSU-115-ISO-II, Cis-N-(3-chloro-4-fluorophenyl)-2-methyl-5-(5-methylthiophen-2-yl)-1,2,6-thiadiazinane-3-carboxamide 1,1-dioxide]	> 5
CN1[C@H](C(=O)Nc2ccc(F)c(Cl)c2)C[C@H](c2ccccn2)NS1(=O)=O [HBV-CSU-031-ISO-I, Cis-N-(3-Chloro-4-fluorophenyl)-2-methyl-5-(pyridin-2-yl)-1,2,6-thiadiazinane-3-carboxamide 1,1-dioxide]	< 1
[2H]C([2H])([2H])N1[C@H](C(=O)Nc2ccc(F)c(Cl)c2)C[C@H](c2ncc(Br)s2)NS1(=O)=O [HBV-CSU-336-ISO-I, 5-(5-Bromothiazol-2-yl)-N-(3-chloro-4-fluorophenyl)-2-(methyl-d3)-1,2,6-thiadiazinane-3-carboxamide 1,1-dioxide]	< 1
CN1[C@@H](C(=O)Nc2ccc(F)c(Cl)c2)C[C@@H](c2ncc(Br)s2)NS1(=O)=O [HBV-CSU-122-ISO-II, Cis-5-(5-bromothiazol-2-yl)-N-(3-chloro-4-fluorophenyl)-2-methyl-1,2,6-thiadiazinane-3-carboxamide 1,1-dioxide]	1 to 5
CN1[C@H](C(=O)Nc2ccc(F)c(Cl)c2)C[C@H](c2ccsn2)NS1(=O)=O [HBV-CSU-056-ISO-I, Cis-N-(3-chloro-4-fluorophenyl)-5-(isothiazol-3-yl)-2-methyl-1,2,6-thiadiazinane-3-carboxamide 1,1-dioxide]	< 1
CN1C(C(=O)Nc2ccc(F)c(Cl)c2)CC(c2ccc(O)c(Cl)c2)NS1(=O)=O (stereo not drawn) [HBV-CSU-220, Cis-N-(3-chloro-4-fluorophenyl)-5-(3-chloro-4-hydroxyphenyl)-2-methyl-1,2,6-thiadiazinane-3-carboxamide 1,1-dioxide]	< 1
